# Results from patent publication US7265087B1, “Exendin improves β-cell response in subjects with impaired glucose tolerance” (priority 1998, dated 2007).
# Several values for one entry are separate records, joined by “and”; a condition that tells them apart may be missing. Identical values can stand only once. No end group written: not given here.
# Assays:
# pancreas = conditions: background statement; cited from earlier work
# [1] = test system: subjects with impaired glucose tolerance (IGT); experiment: 12 hour oscillatory glucose infusion with constant GLP-1 infusion, subjects with IGT; assay type: in vivo, human; parameters: Mean glucose 12 hour GLP-1 / Mean ISR 12 hour GLP-1: unit not given beside the values
# Procedure: (§1) The studies described herein were performed in 10 subjects who were divided into two groups on the basis of their plasma glucose response to an oral glucose tolerance test using the criteria of the World Health Organization to define the degree of glucose tolerance. Five subjects had IGT, and five subjects had NIDDM. The gender, age, body mass index (BMI), basal levels of fasting glucose, 2 hour glucose, fasting insulin, and HBA1c for each subject are presented in Table 2. Diabetic subjects were older than those with IGT, but the groups were matched for by BMI. Mean fasting glucose levels and glycosylated hemoglobin concentrations were lower in the IGT group compared to subjects with NIDDM.
# (§2) The coefficient of variation of this method was <2%. […] The average intraassay coefficient of variation was 5%. […] Diabetes 27, Suppl 1: 170-177, 1978.
# (§3) All results are expressed as mean±SEM. Data analysis was performed using the Statistical Analysis System (SAS Version 6 Edition, for Personal Computers, SAS Institute, Inc., Cary, N.C.). The significance of differences within the individual induced by GLP-1 infusion was determined using paired t tests. Differences were considered to be significant if P<0.05.
# (§4) Standard kinetic parameters for C-peptide clearance adjusted for age, sex and body surface area were utilized, Van Cauter E, Mestrez, F, Sturis J, Polonsky K S. Estimation of insulin secretion rates from C-peptide levels: comparison of individual and standard kinetic parameters for C-peptide clearance. Diabetes 41:368-377, 1992. These parameters were used to derive, in each 15 minute interval between blood sampling, the ISR from the plasma C-peptide concentrations by deconvolution as previously described.
# (§5) Each subject was studied on three separate occasions. All studies were performed after a 12-hour overnight fast beginning at 0700 unless otherwise stated with subjects in the recumbent position. An intravenous catheter was placed in each forearm, one for blood sampling and one for administration of glucose and GLP-1 as needed. In all experiments, the arm containing the sampling catheter was maintained in a heating blanket to ensure arterialization of the venous sample. In the following examples, the GLP-1 was administered to the subjects in the GLP-1 (7-36) amide form.
# (§6) In order to determine whether the β-cells were able to detect and respond to oscillations of glucose, glucose was infused in an oscillatory pattern with a small volume of saline for 12 hours.
# (§7) To determine whether insulin secretion was entrained by glucose in individual subjects, the temporal profiles of insulin secretion were analyzed by spectral analysis. Spectral power analysis was used to evaluate the presence of tight coupling between oscillations in glucose and oscillations in ISR. This method evaluated the regularity of insulin secretory oscillations at a predetermined frequency. Spectral peaks correspond to the dominant periodicity and height of the peaks correspond to spectral power. Each spectrum was normalized assuming the total variance of each series to be 100% and was expressed as the normalized spectral power.
# subjects with NIDDM = experiment: 12 hour oscillatory glucose infusion with constant GLP-1 infusion, subjects with NIDDM; assay type: in vivo, human; parameters: Mean glucose 12 hour GLP-1: unit not given beside the values
# Procedure: as §1, §2, §3, §4
# The diabetic subjects were treated with diet alone with the exception of one subject D07, who was previously treated with an oral hypoglycemic agent that was discontinued 4 weeks prior to the study. None of the diabetic patients had ever received insulin. All subjects were placed on a weight maintenance diet containing at least 200 g of carbohydrate per day for two weeks before the study.
# as §5, §6, §7
compound,measurement,setting,value
SEQ ID NO:5 (EGTFTSDVSSYLEGQAAKEFIAWLVKGRG; mammalian),production or release of insulin from the pancreas,pancreas,do not stimulate the production or release of insulin from the pancreas
"CC[C@H](C)[C@H](NC(=O)[C@H](Cc1ccccc1)NC(=O)[C@H](CCC(=O)O)NC(=O)[C@H](CCCCN)NC(=O)[C@H](C)NC(=O)[C@H](C)NC(=O)[C@H](CCC(N)=O)NC(=O)CNC(=O)[C@H](CCC(=O)O)NC(=O)[C@H](CC(C)C)NC(=O)[C@H](Cc1ccc(O)cc1)NC(=O)[C@H](CO)NC(=O)[C@H](CO)NC(=O)[C@@H](NC(=O)[C@H](CC(=O)O)NC(=O)[C@H](CO)NC(=O)[C@@H](NC(=O)[C@H](Cc1ccccc1)NC(=O)[C@@H](NC(=O)CNC(=O)[C@H](CCC(=O)O)NC(=O)[C@H](C)NC(=O)[C@@H](N)Cc1c[nH]cn1)[C@@H](C)O)[C@@H](C)O)C(C)C)C(=O)N[C@@H](C)C(=O)N[C@@H](Cc1c[nH]c2ccccc12)C(=O)N[C@@H](CC(C)C)C(=O)N[C@H](C(=O)N[C@@H](CCCCN)C(=O)NCC(=O)N[C@@H](CCCNC(=N)N)C(N)=O)C(C)C [GLP-1, GLP-1 (7-36) amide]",Mean ISR 12 hour GLP-1,"[1]; IGT group, Mean ± SEM, n=5, GLP-1 0.4 pmol/kg/min for 12 hours",654.2 ± 152.1
same,Mean glucose 12 hour GLP-1,"[1]; IGT group, Mean ± SEM, n=5, GLP-1 0.4 pmol/kg/min for 12 hours, P<0.05 vs saline",6.35 ± 0.08
same,mean ISRs during GLP-1 infusion compared to saline infusion,[1]; IGT subjects,not significantly different
same,average drop of mean glucose levels during GLP-1 infusion compared to saline,"[1]; IGT subjects, P<0.02, mean±SEM",2.4 ± 0.6 mM
same,mean normalized spectral power for glucose during GLP-1 infusion,"[1]; IGT subjects, P=0.19 vs saline, mean±SEM",13.2±1.6
same,increase of mean insulin levels during GLP-1 infusion compared to saline,"[1]; IGT subjects, P=0.32, mean±SEM",102 ± 90 pmol/L
same,Mean glucagon levels during GLP-1 infusion,"[1]; IGT subjects, P=0.94 vs saline, mean±SEM",39.3 ± 5.4 pg/mL
same,Spectral power for ISR during GLP-1 infusion,"[1]; IGT subjects, normalized, P<0.006 vs saline, mean±SEM",8.9±1.7
same,periodicity of the dominant spectral peak in ISR during GLP-1 infusion,"[1]; individual IGT subject, period of exogenous glucose infusion 144 minutes",144 min
same,Mean ISR 12 hour GLP-1,"[1]; individual IGT subjects D01-D05, GLP-1 0.4 pmol/kg/min for 12 hours with oscillatory glucose infusion",465.9 and 1042.7 and 365.9 and 1005.8 and 390.9
same,Mean glucose 12 hour GLP-1,"[1]; individual IGT subjects D01-D05, GLP-1 0.4 pmol/kg/min i.v. for 12 hours with oscillatory glucose infusion",6.06 and 6.46 and 6.36 and 6.37 and 6.48
same,"Spectral power during GLP-1 infusion, individual subject","[1]; one subject with IGT (D02, FIGS. 6A and 6B), 0.6 during saline",8.9
same,pattern of insulin secretory responses to glucose during GLP-1 infusion,"[1]; representative subjects with IGT, D01 and D02 (FIGS. 3B and 3D)",improved
same,Mean ISR 12 hour GLP-1,"subjects with NIDDM; NIDDM group, Mean ± SEM, n=5, GLP-1 0.4 pmol/kg/min for 12 hours",508 ± 53.4
same,Mean glucose 12 hour GLP-1,"subjects with NIDDM; NIDDM group, Mean ± SEM, n=5, GLP-1 0.4 pmol/kg/min for 12 hours, P<0.05 vs saline",9.40 ± 0.9
same,mean ISRs during GLP-1 infusion compared to saline infusion,subjects with NIDDM; NIDDM subjects,not significantly different
same,mean normalized spectral power for glucose during GLP-1 infusion,"subjects with NIDDM; NIDDM subjects, P=0.18 vs saline, mean±SEM",9.8±0.7
same,Mean glucagon levels during GLP-1 infusion,"subjects with NIDDM; NIDDM subjects, P=0.4 vs saline, mean±SEM",46.4 ± 3.2 pg/mL
same,increase of mean insulin levels during GLP-1 infusion compared to saline,"subjects with NIDDM; NIDDM subjects, P=0.56, mean±SEM",7 ± 12 pmol/L
same,Spectral power for ISR during GLP-1 infusion,"subjects with NIDDM; NIDDM subjects, normalized, P=0.6 vs saline, mean±SEM",1.5±0.8
same,average drop of mean glucose levels during GLP-1 infusion compared to saline,"subjects with NIDDM; diabetics (NIDDM), P<0.0005, mean±SEM",5.2 ± 0.5 mM
same,Mean ISR 12 hour GLP-1,"subjects with NIDDM; individual NIDDM subjects D06-D10, GLP-1 0.4 pmol/kg/min for 12 hours with oscillatory glucose infusion",477.7 and 715.4 and 487.7 and 412.5 and 448.9
same,Mean glucose 12 hour GLP-1,"subjects with NIDDM; individual NIDDM subjects D06-D10, GLP-1 0.4 pmol/kg/min i.v. for 12 hours with oscillatory glucose infusion",11.53 and 10.51 and 6.24 and 8.84 and 9.90
same,"Spectral power during GLP-1 infusion, individual subject","subjects with NIDDM; one subject with NIDDM (D07, FIGS. 6C and 6D), 0.28 during saline",1.51 and 1.5
same,pattern of insulin secretory responses to glucose during GLP-1 infusion,"subjects with NIDDM; two subjects with NIDDM, D07 and D09 (FIGS. 4B and 4D)",not improved
SEQ ID NO:6 (EGTFTSDVSSYLEGQAAKEFIAWLVKGR-NH2),production or release of insulin from the pancreas,pancreas,do not stimulate the production or release of insulin from the pancreas
